Results taken from US20120283212A1, “USE OF POLYSACCHARIDES FOR TREATING STRESS AND ANXIETY” (ROQUETTE FRERES, priority 2009, published 2012).

What was measured:
male Wistar rat [1] = assay: Functional observational battery (FOB); assay type: in vivo; settings: diazepam 3 mg/kg on D14; for Spontaneous activity on D14 (score): score 0=excited, 1 to 3 moderate rapid movements, 4 no activity; for Finger approach reaction on D14 (score): score 0=none, 1 to 3=slight to strong escape; for Respiratory rate on D14 (score): score 0=slow, 1=normal, 2 rapid
Description: The effects of an oligosaccharide administered orally at doses of 0.7 and 1.4 g/kg for 14 days were evaluated in a functional observational battery (FOB) in the male Wistar rat. The objective of this FOB test is to evaluate the change in behavioral, neurological and physiological parameters of the rats according to the products tested.
For this, a polysaccharide (PS1) as defined in table 1 is administered by esophageal gavage daily at these two doses for 14 days (6 rats per group). Similarly, a vehicle control consisting of spring water is administered under these conditions. The reference positive control is diazepam: from D0 to D13, methylcellulose is administered to the rats and on D14, diazepam at 3 mg/kg of body weight is also administered.
The animals are subjected to the functional observational battery before treatment on D0 and at the end of the study on D14.
Each test comprises three observational phases: • a direct observational phase during which the animal is not disturbed, • an active observational phase during which the animal is handled, • a phase devoted to evaluating the reactions of the animals to reactivity tests.
Several variables are recorded: • Behavioral effects: spontaneous locomotor activity, locomotor behavior disorders, emotionality (vocalization frequency), touch escape reaction, irritability, provoked aggressiveness and freezing behaviors, sleeping/awakening, urination and defecation, sensorimotor responses (visual placing, toe pinch and sound stimulus reaction). • Neurological effects: pupillary response, palpebral reflex, pelvic elevation, tail position, limb and abdominal muscle tone, righting test, grip strength test, suspension test, tremors and piloerection. • Physiological effects: salivation, lacrimation, diarrhea, rectal temperature, heart and respiratory rate.
Definition of the scores: • Spontaneous activity: 0=excited; 1 to 3 moderate rapid movements; 4: no activity. • Finger approach reaction: 0=none; 1 to 3=slight to strong escape. • Respiratory rate: 0=slow; 1=normal; 2 rapid. • Sound stimulus startle reaction: 0=slight; 1=<1 cm; 2=>1 cm.

male Wistar rat [2] = assay: Conditioned Defensive Burying (CDB) test; assay type: in vivo; settings: the greater the stress, the higher the score
Description: The anti-stress effects of a PS1 polysaccharide, administered orally for 14 days, were evaluated in the male Wistar rat in the Conditioned Defensive Burying (CDB) test.
For this, the PS1 is administered by esophageal gavage daily at the doses of 0.7, 1.4 and 2.8 g/kg of body weight for 14 days (8 rats per group). Similarly, a vehicle control represented by spring water is administered under the same conditions. The reference positive control is diazepam: from D0 to D13, methylcellulose is administered to the rats, and on D14, diazepam at 1 mg/kg or 3 mg/kg of body weight is administered to the rats. The PS1 and diazepam mixture is also studied: the PS1 is administered for 14 days alone, and on D14, diazepam at 1 mg/kg is added to the esophageal gavage of the PS1.
On D14, the rats are subjected to the Conditioned Defensive Burying (CDB) test. For this, an electric probe is inserted into a cage before the start of the test. Each rat is placed in the experimental device on the opposite side to the probe and a single electric shock, of weak intensity (2 mA), is delivered to the animal at the moment it places its front paw on the probe for the first time. Following the shock, the behavior of the rat is recorded for five minutes; an overall stress score is attributed for each rat. The greater the stress, the higher the score.

## CN1C(=O)CN=C(c2ccccc2)c2cc(Cl)ccc21 [Diazepam, diazepam]
Male Wistar rat [1]
  Heart rate on D14, in comparison with the vehicle: significantly slower
  Spontaneous activity on D14 (score): 2.16
  Finger approach reaction on D14 (score): 0.18
  Respiratory rate on D14 (score): 1.14
Male Wistar rat [1]; listed as reference
  Spontaneous activity on D14 (score): tend to be significantly less active
  Finger approach reaction on D14 (score): significantly less reactive to a finger approach
  Respiratory rate on D14 (score): significantly slower
Male Wistar rat [1]; score 0=slight, 1=<1 cm, 2=>1 cm
  Sound stimulus startle reaction on D14 (score): 0.00
Male Wistar rat [2]; diazepam 1 mg/kg on D14
  Overall stress score (Mean ± SEM): 92.57 ± 17.99
Male Wistar rat [2]; diazepam 3 mg/kg on D14
  Overall stress score (Mean ± SEM): 65.25 ± 7.15
Male Wistar rat [2]; diazepam 3 mg/kg on D14, listed as diazepam
  Overall stress score (Mean ± SEM): significantly lower than that of the vehicle group
